According to ChEMBL document CHEMBL1124124, “Synthesis and interaction with uridine phosphorylase of 5'-deoxy-4',5-difluorouridine, a new prodrug of 5-fluorouracil” (J Med Chem, 1988):

Test system: Uridine phosphorylase (Mus musculus)
Experiment: Relative Vmax for interaction with Urd phosphorylase

C[C@@]1(F)OC(n2cc(F)c(=O)[nH]c2=O)[C@H](O)[C@@H]1O (stereo partly specified)
Relative Vmax: 5
